Data from ChEMBL document CHEMBL5143676, “Piezo-Type Mechanosensitive Ion Channel Component 1 (Piezo1): A Promising Therapeutic Target and Its Modulators” (J Med Chem, 2022).
Bridge positions count the residues as written; N and C are the ends. Peptide text beside a SMILES is read from it.

Legend:
[1] = target: T1, Piezo-type mechanosensitive ion channel component 1 (Homo sapiens, UniProt Q92508); test: Binding affinity to Piezo1 (unknown origin) transfected in human HEK293 cells assessed as equilibrium constant at 40 mmHg/+50 mV; assay type: cell-based
[2] = target: T1, Piezo-type mechanosensitive ion channel component 1; test: Inhibition of Piezo1 (unknown origin) transfected in human HEK293 cells assessed as rightward shift in pressure-gating curve at 50 mV at 1 to 4 uM; assay type: cell-based; details: dose 1-4 µM
[3] = target: T2, Piezo-type mechanosensitive ion channel component 1 (Mus musculus, UniProt E2JF22); test: Binding affinity to mouse Piezo1 assessed as dissociation constant by SPR assay
[4] = target: T2, Piezo-type mechanosensitive ion channel component 1; test: Inhibition of mouse Piezo1
[5] = target: T2, Piezo-type mechanosensitive ion channel component 1; test: Agonist activity at mouse Piezo1 transfected in human HEK293T cells by FLIPR assay; assay type: cell-based
[6] = target: T1, Piezo-type mechanosensitive ion channel component 1; test: Agonist activity at human Piezo1 transfected in human HEK293T cells by FLIPR assay; assay type: cell-based

T1 sequence (Q92508 whole entry): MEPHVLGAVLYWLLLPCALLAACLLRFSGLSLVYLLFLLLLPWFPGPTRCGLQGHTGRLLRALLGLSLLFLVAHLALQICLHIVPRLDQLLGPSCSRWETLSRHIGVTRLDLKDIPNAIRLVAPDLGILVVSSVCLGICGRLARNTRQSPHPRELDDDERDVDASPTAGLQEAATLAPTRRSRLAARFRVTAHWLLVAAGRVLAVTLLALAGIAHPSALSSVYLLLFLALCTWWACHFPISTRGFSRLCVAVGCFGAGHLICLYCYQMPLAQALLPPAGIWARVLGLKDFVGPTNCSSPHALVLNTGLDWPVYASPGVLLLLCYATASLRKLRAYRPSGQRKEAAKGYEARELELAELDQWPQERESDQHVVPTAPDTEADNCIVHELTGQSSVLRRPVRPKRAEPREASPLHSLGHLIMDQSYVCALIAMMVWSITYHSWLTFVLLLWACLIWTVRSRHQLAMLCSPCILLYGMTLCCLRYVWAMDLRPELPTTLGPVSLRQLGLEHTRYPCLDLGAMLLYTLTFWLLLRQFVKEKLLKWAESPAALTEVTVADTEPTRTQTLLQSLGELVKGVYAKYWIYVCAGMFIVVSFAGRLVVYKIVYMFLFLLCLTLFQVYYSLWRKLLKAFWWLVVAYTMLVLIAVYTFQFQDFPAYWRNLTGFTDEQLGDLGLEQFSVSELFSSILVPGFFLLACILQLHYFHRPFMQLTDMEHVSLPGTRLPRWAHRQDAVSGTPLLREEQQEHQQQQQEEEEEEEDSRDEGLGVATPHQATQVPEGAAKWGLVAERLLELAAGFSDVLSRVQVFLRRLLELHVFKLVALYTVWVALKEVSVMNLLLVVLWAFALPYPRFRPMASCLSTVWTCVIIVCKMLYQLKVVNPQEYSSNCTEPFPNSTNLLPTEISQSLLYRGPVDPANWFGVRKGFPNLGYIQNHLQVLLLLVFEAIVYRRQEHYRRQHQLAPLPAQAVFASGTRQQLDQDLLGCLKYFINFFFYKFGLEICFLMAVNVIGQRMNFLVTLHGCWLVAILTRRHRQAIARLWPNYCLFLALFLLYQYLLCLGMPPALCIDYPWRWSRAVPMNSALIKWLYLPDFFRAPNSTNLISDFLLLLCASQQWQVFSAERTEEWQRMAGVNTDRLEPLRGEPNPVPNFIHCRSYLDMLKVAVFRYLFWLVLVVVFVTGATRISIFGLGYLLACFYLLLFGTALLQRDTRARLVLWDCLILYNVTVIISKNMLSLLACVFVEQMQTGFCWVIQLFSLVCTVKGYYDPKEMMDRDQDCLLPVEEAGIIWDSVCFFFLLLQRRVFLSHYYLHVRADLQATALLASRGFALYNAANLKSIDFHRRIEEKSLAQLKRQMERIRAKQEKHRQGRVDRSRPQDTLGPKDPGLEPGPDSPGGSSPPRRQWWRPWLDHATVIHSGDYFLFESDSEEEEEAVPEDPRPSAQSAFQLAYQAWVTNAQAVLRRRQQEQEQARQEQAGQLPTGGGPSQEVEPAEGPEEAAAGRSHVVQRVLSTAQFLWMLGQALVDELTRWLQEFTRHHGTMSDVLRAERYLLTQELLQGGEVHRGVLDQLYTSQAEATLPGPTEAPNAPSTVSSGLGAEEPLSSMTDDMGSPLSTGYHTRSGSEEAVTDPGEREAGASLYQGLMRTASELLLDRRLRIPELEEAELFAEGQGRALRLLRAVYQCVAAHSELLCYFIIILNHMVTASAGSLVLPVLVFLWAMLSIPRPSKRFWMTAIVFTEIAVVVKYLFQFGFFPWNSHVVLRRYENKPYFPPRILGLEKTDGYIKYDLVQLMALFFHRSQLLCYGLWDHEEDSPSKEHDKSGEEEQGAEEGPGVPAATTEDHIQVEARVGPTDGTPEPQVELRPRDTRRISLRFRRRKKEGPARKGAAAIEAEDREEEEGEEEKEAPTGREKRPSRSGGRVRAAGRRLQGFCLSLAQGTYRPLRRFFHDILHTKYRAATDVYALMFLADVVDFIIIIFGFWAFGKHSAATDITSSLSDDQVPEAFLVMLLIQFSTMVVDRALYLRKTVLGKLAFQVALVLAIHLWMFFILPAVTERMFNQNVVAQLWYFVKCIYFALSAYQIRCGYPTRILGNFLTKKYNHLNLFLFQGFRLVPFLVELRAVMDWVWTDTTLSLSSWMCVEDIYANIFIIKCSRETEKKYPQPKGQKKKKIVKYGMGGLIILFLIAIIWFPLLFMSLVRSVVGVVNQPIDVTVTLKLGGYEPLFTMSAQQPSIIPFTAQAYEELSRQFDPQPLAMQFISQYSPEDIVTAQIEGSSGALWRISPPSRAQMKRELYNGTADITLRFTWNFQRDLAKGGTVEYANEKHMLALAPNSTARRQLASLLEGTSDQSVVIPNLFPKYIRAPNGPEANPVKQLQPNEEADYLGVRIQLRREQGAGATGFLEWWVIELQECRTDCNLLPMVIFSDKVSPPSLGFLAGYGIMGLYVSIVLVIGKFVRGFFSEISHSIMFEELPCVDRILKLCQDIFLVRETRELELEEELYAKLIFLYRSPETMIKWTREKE
T2 sequence (E2JF22 whole entry): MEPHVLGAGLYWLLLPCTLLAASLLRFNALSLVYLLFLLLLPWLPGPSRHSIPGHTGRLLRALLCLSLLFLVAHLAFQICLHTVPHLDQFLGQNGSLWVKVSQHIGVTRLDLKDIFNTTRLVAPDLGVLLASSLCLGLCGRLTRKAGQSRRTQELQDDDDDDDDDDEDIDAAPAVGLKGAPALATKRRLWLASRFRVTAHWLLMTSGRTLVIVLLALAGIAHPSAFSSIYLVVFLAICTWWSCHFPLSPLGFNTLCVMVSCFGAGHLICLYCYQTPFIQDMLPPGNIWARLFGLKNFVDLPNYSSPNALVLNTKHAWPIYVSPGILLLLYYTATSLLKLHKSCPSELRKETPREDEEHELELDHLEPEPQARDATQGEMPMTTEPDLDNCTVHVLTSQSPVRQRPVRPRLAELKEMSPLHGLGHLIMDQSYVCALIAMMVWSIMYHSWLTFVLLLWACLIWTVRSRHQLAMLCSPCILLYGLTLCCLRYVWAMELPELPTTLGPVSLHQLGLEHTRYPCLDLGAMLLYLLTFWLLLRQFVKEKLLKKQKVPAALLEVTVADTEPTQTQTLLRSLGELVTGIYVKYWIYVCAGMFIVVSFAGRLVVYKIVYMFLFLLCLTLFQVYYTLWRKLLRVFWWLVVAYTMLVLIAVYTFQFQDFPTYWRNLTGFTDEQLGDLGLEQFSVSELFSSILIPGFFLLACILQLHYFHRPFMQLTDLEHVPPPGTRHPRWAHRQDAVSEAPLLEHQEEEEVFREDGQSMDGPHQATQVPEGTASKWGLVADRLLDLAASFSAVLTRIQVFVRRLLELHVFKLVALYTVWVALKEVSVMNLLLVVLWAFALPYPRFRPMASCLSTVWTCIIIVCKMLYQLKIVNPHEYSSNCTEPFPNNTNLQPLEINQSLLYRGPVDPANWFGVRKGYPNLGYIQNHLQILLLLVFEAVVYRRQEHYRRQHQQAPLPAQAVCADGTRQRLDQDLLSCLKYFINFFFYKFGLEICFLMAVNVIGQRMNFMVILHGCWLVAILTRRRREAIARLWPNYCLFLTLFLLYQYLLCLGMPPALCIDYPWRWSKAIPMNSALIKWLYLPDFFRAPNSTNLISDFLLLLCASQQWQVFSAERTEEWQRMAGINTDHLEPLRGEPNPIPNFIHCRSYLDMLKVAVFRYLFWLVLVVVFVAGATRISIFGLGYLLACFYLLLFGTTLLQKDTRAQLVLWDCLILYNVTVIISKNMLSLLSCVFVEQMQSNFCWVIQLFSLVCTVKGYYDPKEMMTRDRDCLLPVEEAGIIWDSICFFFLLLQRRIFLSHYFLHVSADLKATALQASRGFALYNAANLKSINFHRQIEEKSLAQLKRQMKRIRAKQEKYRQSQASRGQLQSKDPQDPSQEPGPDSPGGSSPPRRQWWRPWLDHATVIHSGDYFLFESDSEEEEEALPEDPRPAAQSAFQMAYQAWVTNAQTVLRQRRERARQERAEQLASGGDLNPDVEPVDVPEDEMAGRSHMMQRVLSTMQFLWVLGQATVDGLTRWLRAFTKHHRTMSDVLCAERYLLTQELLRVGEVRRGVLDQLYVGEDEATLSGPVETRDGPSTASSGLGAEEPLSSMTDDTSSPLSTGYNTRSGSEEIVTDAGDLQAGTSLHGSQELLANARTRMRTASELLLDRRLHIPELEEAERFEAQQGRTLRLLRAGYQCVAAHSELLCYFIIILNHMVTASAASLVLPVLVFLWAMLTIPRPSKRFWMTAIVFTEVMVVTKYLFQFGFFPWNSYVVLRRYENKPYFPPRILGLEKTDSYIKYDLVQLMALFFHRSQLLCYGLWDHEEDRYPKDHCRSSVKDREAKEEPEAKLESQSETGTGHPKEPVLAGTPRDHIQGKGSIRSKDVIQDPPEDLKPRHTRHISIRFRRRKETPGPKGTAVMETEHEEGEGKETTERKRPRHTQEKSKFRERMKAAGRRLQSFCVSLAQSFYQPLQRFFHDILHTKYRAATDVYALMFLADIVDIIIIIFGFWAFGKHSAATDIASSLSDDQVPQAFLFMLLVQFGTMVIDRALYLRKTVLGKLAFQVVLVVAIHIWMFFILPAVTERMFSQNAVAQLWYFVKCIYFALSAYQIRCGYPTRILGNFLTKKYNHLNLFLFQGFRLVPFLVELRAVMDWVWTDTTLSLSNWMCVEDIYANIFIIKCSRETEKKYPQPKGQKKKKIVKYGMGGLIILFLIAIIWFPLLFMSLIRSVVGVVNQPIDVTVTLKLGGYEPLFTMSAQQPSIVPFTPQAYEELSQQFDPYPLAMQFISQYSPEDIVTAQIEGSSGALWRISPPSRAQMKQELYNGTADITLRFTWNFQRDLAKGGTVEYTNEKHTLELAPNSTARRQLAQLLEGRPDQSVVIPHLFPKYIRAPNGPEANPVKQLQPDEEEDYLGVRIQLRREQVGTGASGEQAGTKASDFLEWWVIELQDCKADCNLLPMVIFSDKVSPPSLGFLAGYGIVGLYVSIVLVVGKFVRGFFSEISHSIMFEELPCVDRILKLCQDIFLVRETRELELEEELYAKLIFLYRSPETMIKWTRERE

`CC(C)C[C@@H]1NC(=O)[C@@H](NC(=O)CN)CSSC[C@@H]2NC(=O)[C@@H]3CSSC[C@@H](C(=O)N[C@@H](CC(N)=O)C(=O)N[C@@H](Cc4ccccc4)C(=O)N[C@@H](CO)C(=O)N[C@@H](Cc4ccccc4)C(N)=O)NC(=O)[C@H](CC(C)C)NC(=O)[C@H](CCCCN)NC(=O)[C@H](Cc4ccccc4)NC(=O)[C@H](CC(C)C)NC(=O)[C@H](CCCCN)NC(=O)[C@H](CO)NC(=O)[C@H](CSSC[C@H](NC(=O)[C@H](CCCCN)NC(=O)[C@H](Cc4c[nH]c5ccccc45)NC(=O)[C@H](Cc4c[nH]c5ccccc45)NC(=O)[C@H](Cc4ccccc4)NC(=O)[C@H](CCC(=O)O)NC1=O)C(=O)N[C@@H](CC(N)=O)C(=O)N1CCC[C@H]1C(=O)N[C@@H](CC(N)=O)C(=O)N[C@@H](CC(=O)O)C(=O)N[C@@H](CC(=O)O)C(=O)N[C@@H](CCCCN)C(=O)N3)NC(=O)[C@H](CCCCN)NC(=O)[C@H](CC(C)C)NC(=O)[C@H](CCCCN)NC(=O)[C@@H]1CCCN1C(=O)[C@H](CCCNC(=N)N)NC2=O` (H-GCLEFWWKCNPNDDKCCRPKLKCSKLFKLCNFSF-NH2; disulfide 2-17, 9-23, 16-30) was tested, and the Ke [1] was 155 nM and the Activity [2] was 30 mmHg.
Molecule `Cc1oc(-c2cccs2)cc1C(=O)O` has a Kd [3] of 2240 µM.
For `Cc1oc(-c2ccccc2)cc1C(=O)O`, the EC50 [4] was 200 µM.
With `Clc1cccc(Cl)c1CSc1nnc(-c2cnccn2)s1` the EC50 [5] was 17.1 µM and the EC50 [6] was 26.6 µM.
